Experimental findings from US20260103529A1, “Amino Acid Sequences Directed Against the Melanocortin 4 Receptor and Polypeptides Comprising the Same for the Treatment of MC4R-Related Diseases and Disorders” (Confo Therapeutics N.V., priority 2022, published 2026) are described below.

Format in all cases: cell-based
One test has as its target T1, human wild type MC5R (Homo sapiens, UniProt P33032).
T1 construct: expressed in transfected cells; host or cells: HEK293 / HEK 293T, pcDNA3.1(+)
Briefly: cAMP GloSensor assay, MC5R. The settings on record: HEK293 cells transiently transfected with human MC5R; read-out: average signaling potency (EC50), cAMP GloSensor, MC5R.

Test [1] has as its system highly pigmented normal human epidermal melanocytes (NHEM-HP). Briefly: In vitro pigmentation assay, melanin synthesis, 2D NHEM highly pigmented. The settings on record: 10 days; for melanin synthesis compared to the non-stimulated control, reference compounds: 1 mM L-tyrosine, 100 μM IBMX or 10 μM NDP-MSH. The method, then: (§1) Highly and moderately pigmented melanocytes were seeded in 24-well plates and cultured in culture medium for 24 hours. The medium was then replaced by culture medium containing or not (control) the test compounds or the reference compounds (L-tyrosine at 1 mM, IBMX at 100 and 200 μM and NDP-MSH at 10 μM). The cells were then incubated for 10 days with treatment renewal at day 3 and day 7. All experimental conditions were performed in n=3. At the end of the incubation time, the culture supernatants were removed, and melanin was extracted by cell lysis using a 0.5 N NaOH solution. The optical density (OD) of each experimental point was measured at 405 nm and melanin quantity was determined according to melanin standard curve (standard curve ranging from 0.39 to 100 μg/ml). The results were expressed in μg/ml of melanin. […] NHEM-HP response to L-tyrosine and NDP-MSH was stronger than in NHEM-MP while IBMX induced a stronger response in the NHEM-MP.

The test system of test [2] is moderately pigmented normal human epidermal melanocytes (NHEM-MP). Briefly: In vitro pigmentation assay, melanin synthesis, 2D NHEM moderately pigmented. The settings on record: 10 days; for melanin synthesis compared to the non-stimulated control, reference compounds: 1 mM L-tyrosine, 100 μM IBMX or 10 μM NDP-MSH. The protocol:
as §1

Test [3] concerns melanized reconstituted human epidermis (RHE/MEL/001). Briefly: In vitro pigmentation assay, 3D reconstituted human epidermis, dermoscopy. The method, then:
The study was carried out on melanized human epidermis (RHE/MEL/001; batch CB0521-3) in vitro reconstituted with NHEKs (Normal human epidermal keratinocytes, Lonza 00192906) isolated from foreskin of 3 neonatal Caucasian donors and NHEM-DP (Normal Human Epidermal Melanocytes-Darkly pigmented) isolated form one donor (phototype IV-V). The tissues were cultured at the air-liquid interface in Epilife medium (Fisher Scientific, MEP1500CA) containing specific supplements (with among others Human Keratinocytes Growth Factors, Fisher Scientific S0015 or SO01K) and antibiotics (Gentamycin, Fisher Scientific, 15710049). They were maintained in a humid atmosphere at 37° C. with 5% CO2.
RHE/MEL/001 were reconstituted and cultivated at the air-liquid interface during 14 days in Epilife medium supplemented with specific growth supplements (as described in paragraph 1) in a humid atmosphere at 37° C. with CO2 5%.
IBMX (Sigma; 15879) at 100 µM was used as tanning reference compound to validate the experiment. A DMSO control (corresponding to the solvent used to solubilize IBMX) at 0.02% (corresponding to the final concentration in DMSO found in the culture medium for the condition treated with IBMX) was planned as well. Four replicates were planned per condition (n=4).
At the end of the 10 days treatments (at day 14), macroscopic high-resolution pictures of tissues (n=4) were taken. This was performed using the C-Cube device (Dermoscope type tool; Pixience, France) coupled to C-Cube clinical 3 software, which uses a proprietary method of colour calibration, and provides razor-sharp images of high quality and precision. The following endpoints were calculated, each one taking into account 3 values from the mode “L* a* b*” with L* reflecting the luminance/brightness (value from 0 to 100 with high values for clear skins), a* to gives an idea about the redness of the skin (value from −60 to 60 on the red/green axis) and b* to gives an idea about the yellowness of the skin (value from −60 to 60 on the blue/yellow axis): • ITA (Individual Typology Angle) characterizing the phototype, compared to a standard scale, with ITA>55° for very clear skins and ITA<−30° for black skins. • PI (Pigmentation Index) whose value is directly proportional to the skin pigmentation, with PI from 140 for clear skins to 200 for dark skins. • Colorimetric difference (score or ΔE) allows to quantify colour variation between a test condition and a reference. […]
The two test items, hydro-soluble, were evaluated in parallel of one reference compound known to be a pigmentation inducer, namely IBMX. Their capacity to stimulate the production of melanin was evaluated by visual quantification of melanin on macroscopic high resolution pictures obtained by dermoscopy. […]

[4] abbreviates: 10 μM in culture medium, 10 days, dermoscopy.

T1 sequence (P33032 whole entry): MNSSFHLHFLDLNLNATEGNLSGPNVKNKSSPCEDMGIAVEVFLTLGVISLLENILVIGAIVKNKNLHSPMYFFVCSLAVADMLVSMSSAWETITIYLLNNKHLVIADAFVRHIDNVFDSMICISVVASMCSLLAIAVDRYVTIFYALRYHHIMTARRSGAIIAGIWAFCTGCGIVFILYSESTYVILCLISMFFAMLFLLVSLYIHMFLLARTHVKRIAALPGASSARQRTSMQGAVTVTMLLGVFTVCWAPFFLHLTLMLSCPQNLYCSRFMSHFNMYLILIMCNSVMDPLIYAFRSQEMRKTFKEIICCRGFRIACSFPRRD

As usually defined, the EC50 is the concentration at which the effect is half-maximal. In the case of `CC(=O)N[C@@H](CCCNC(=N)N)C(=O)N[C@H]1CSSC[C@@H](C(N)=O)NC(=O)[C@H](Cc2c[nH]c3ccccc23)NC(=O)[C@H](CCCNC(=N)N)NC(=O)[C@@H](Cc2ccccc2)NC(=O)[C@H](Cc2c[nH]cn2)NC(=O)[C@@H](C)NC1=O` [setmelanotide, reference compound], the EC50 on human wild type MC5R was 451 ± 143 nM.
For `N[C@@H](Cc1ccc(O)cc1)C(=O)O` [L-tyrosine], the “melanin synthesis compared to the non-stimulated control, reference compounds” value in test [1] and in test [2] was “induced a stimulation of melanin synthesis” each time.
As for NDP-MSH, the “melanin synthesis compared to the non-stimulated control, reference compounds” value in test [1] and in test [2] was “induced a stimulation of melanin synthesis” in each case.
With “Setmelanotide acetate [reference compound]”, the melanin synthesis in test [1] (10 μM) is 130 % of the control. Moreover, in test [2], the “modulation of melanin synthesis” value was “did not modulate”. Further, in test [3] (setting [4]), the “Individual typology angle (ITA)” value was “significantly modulated”; the “pigmentation index (PI)” value is “significantly modulated”; the “visual colorimetric difference (score, ΔE)” value is “significantly modulated”. For the same molecule, the “effect on epidermis pigmentation (conclusion of dermoscopy analysis)” value in test [3] (10 μM, human epidermis in culture) is given as “has a tanning effect”.
For `CC(C)Cn1c(=O)n(C)c(=O)c2[nH]cnc21` [IBMX], the “melanin synthesis compared to the non-stimulated control, reference compounds” value in test [1] and in test [2] was “induced a stimulation of melanin synthesis” in each case.
